Test results taken from ChEMBL document CHEMBL1201862, “PubChem BioAssay data set” (2004).
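Assay format: 96-well plates, 48-hour exposure. The concentration for 50% growth inhibition is given as GI50.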 The source made the active and inactive calls. Rule as the data show it: active = GI50 up to about 1.1 µM and inactive = higher.

How the values were obtained:
Test in all cases: NCI-60 cell line screen, 48 h
[1] = system: A549
[2] = system: CAKI-1
[3] = system: CCRF-CEM
[4] = system: HT-29
[5] = system: IGROV-1
[6] = system: K562
[7] = system: LOX IMVI
[8] = system: OVCAR-4
[9] = system: OVCAR-5
[10] = system: OVCAR-8
[11] = system: RPMI-8226
[12] = system: RXF 393
[13] = system: SF-539
[14] = system: SK-OV-3
[15] = system: SNB-19
[16] = system: SR
[17] = system: UACC-257
[18] = system: SK-MEL-28

Measured: GI50

CC1(C)CC(=O)c2c(oc3cc(O)c(O)cc23)C1
inactive: [1] 38 µM | [2] 25.8 µM | [3] 9.84 µM | [4] 53 µM | [5] 40.2 µM | [6] 24.7 µM | [7] 17.1 µM | [8] 19.5 µM | [9] 15.5 µM | [10] 19.2 µM | [11] 17.5 µM | [12] 29.4 µM | [13] 28.6 µM | [14] > 100 µM | [15] 82.2 µM | [16] 18.8 µM | [17] 30.5 µM

Cc1ccc(-c2c(C#N)c(-c3ccc(C)cc3)n(NS(=O)(=O)c3ccccc3)c(=O)c2C#N)cc1
inactive: [1] 41.2 µM | [2] 83.8 µM | [3] 24.4 µM | [4] 41.7 µM | [5] 44.5 µM | [6] 49.2 µM | [7] 35 µM | [8] 40.6 µM | [9] > 100 µM | [10] 69.2 µM | [11] 14.7 µM | [12] 35.3 µM | [13] 21.2 µM | [18] 49.2 µM | [14] 53.8 µM | [15] 42.1 µM | [17] 86.1 µM

CCn1c2c(c3ccccc31)[C@@H](c1ccc(Cl)cc1)CC1C(=O)N(c3ccccc3)C(=O)C21 (stereo partly drawn)
inactive: [1] > 100 µM | [2] > 100 µM | [3] 63.2 µM | [4] 65.5 µM | [5] > 100 µM | [6] 77.3 µM | [7] > 100 µM | [8] > 100 µM | [9] > 100 µM | [10] > 100 µM | [11] 65 µM | [12] 38 µM | [13] 31.8 µM | [18] > 100 µM | [14] > 100 µM | [15] > 100 µM | [16] 12.8 µM | [17] > 100 µM

CC1=C(c2cc(C(=O)Nc3cc(C)ccc3C)nc(N)n2)Sc2ccccc2N1
inactive: [1] > 100 µM | [2] > 100 µM | [3] > 100 µM | [4] > 100 µM | [5] > 100 µM | [6] > 100 µM | [7] > 100 µM | [8] > 100 µM | [9] > 100 µM | [10] > 100 µM | [11] > 100 µM | [12] > 100 µM | [13] > 100 µM | [18] > 100 µM | [14] > 100 µM | [15] > 100 µM | [16] 65.8 µM | [17] > 100 µM

C=CCc1cc(OC)c2c(c1)C(OC)CC(c1ccc(OC)c(OC)c1)O2 (stereo not drawn)
inactive: [1] > 100 µM | [2] 94.8 µM | [3] > 100 µM | [4] > 100 µM | [5] > 100 µM | [6] 61.8 µM | [7] > 100 µM | [8] > 100 µM | [9] > 100 µM | [10] > 100 µM | [11] 38 µM | [13] > 100 µM | [18] > 100 µM | [14] > 100 µM | [15] > 100 µM | [17] > 100 µM

Cc1ccc([N+](=O)[O-])cc1NC(=O)/C(=N/NC(=S)NN)C1SC(=S)NC1=O (stereo not drawn)
inactive: [1] > 100 µM | [2] > 100 µM | [3] 40.2 µM | [4] > 100 µM | [5] > 100 µM | [6] > 100 µM | [7] > 100 µM | [8] > 100 µM | [9] > 100 µM | [10] > 100 µM | [11] > 100 µM | [12] > 100 µM | [13] > 100 µM | [18] > 100 µM | [14] > 100 µM | [15] > 100 µM | [16] > 100 µM | [17] > 100 µM

O=C(CC1(O)C(=O)Nc2c(Cl)cc(Cl)cc21)c1ccccc1 (stereo not drawn)
inactive: [1] > 100 µM | [2] > 100 µM | [4] 31.6 µM | [5] > 100 µM | [6] 47.4 µM | [7] > 100 µM | [8] 39.2 µM | [9] > 100 µM | [10] 71.8 µM | [11] 31.3 µM | [12] > 100 µM | [13] > 100 µM | [18] > 100 µM | [14] > 100 µM | [15] > 100 µM | [17] 57 µM

C=CCOC(=O)C1CCC(=O)N1C(=O)C(Cl)Cl (stereo not drawn)
inactive: [1] > 100 µM | [2] > 100 µM | [3] > 100 µM | [4] > 100 µM | [5] > 100 µM | [6] > 100 µM | [7] > 100 µM | [8] > 100 µM | [9] > 100 µM | [10] > 100 µM | [11] > 100 µM | [18] > 100 µM | [14] > 100 µM | [15] > 100 µM | [17] > 100 µM

COc1c(C)cc2c(C(C)C)c(O)c(O)c(C=O)c2c1O
inactive: [1] 31.7 µM | [3] 18.4 µM | [4] 13.3 µM | [5] 30.5 µM | [6] 17.2 µM | [7] 24 µM | [8] 17.2 µM | [9] 28.9 µM | [10] 27.4 µM | [11] 37.9 µM | [12] 21.6 µM | [13] 17.8 µM | [18] 22.4 µM | [14] 29.9 µM | [15] 35.7 µM | [17] 21.4 µM

O=c1/c(=C/c2cccc3ccccc23)sc2nc3ccccc3n12
inactive: [1] > 100 µM | [2] > 100 µM | [4] > 100 µM | [5] > 100 µM | [6] > 100 µM | [7] > 100 µM | [8] > 100 µM | [9] > 100 µM | [10] > 100 µM | [12] > 100 µM | [13] > 100 µM | [18] > 100 µM | [15] > 100 µM | [17] > 100 µM

Cc1ccn2c(c1)nc1nc3ccccc3nc12
inactive: [1] > 100 µM | [2] > 100 µM | [3] > 100 µM | [4] > 100 µM | [5] > 100 µM | [6] > 100 µM | [7] > 100 µM | [8] > 100 µM | [9] > 100 µM | [10] > 100 µM | [11] > 100 µM | [12] > 100 µM | [13] > 100 µM | [18] > 100 µM | [14] 59.6 µM | [15] > 100 µM | [16] > 100 µM | [17] > 100 µM

NN/C(Cc1ccccc1)=N\NO
inactive: [1] > 100 µM | [2] > 100 µM | [3] 39.8 µM | [4] > 100 µM | [5] > 100 µM | [6] 85.7 µM | [7] 33.3 µM | [8] > 100 µM | [9] > 100 µM | [12] > 100 µM | [13] > 100 µM | [18] > 100 µM | [15] > 100 µM | [17] > 100 µM

O=c1/c(=C/c2ccccc2F)sc2nc3ccccc3n12
inactive: [1] > 100 µM | [2] > 100 µM | [3] > 100 µM | [4] > 100 µM | [5] > 100 µM | [6] > 100 µM | [7] 91 µM | [8] > 100 µM | [9] > 100 µM | [10] > 100 µM | [11] > 100 µM | [12] > 100 µM | [13] 74.3 µM | [18] > 100 µM | [15] > 100 µM | [16] 38.3 µM | [17] > 100 µM

CCOc1ccccc1/N=C(/NC(=O)CC)SC
inactive: [1] > 10 µM | [2] > 10 µM | [3] 64.6 µM | [4] > 10 µM | [5] > 10 µM | [6] > 10 µM | [7] > 10 µM | [8] 85.1 µM | [9] > 10 µM | [10] 57 µM | [11] 95.9 µM | [12] > 10 µM | [13] > 10 µM | [18] > 10 µM | [14] > 10 µM | [15] > 10 µM | [16] > 10 µM | [17] > 10 µM

Cc1ccc(Nc2ccc(Nc3ccc(C)cc3S(=O)(=O)O)c3c2C(=O)c2ccccc2C3=O)c(S(=O)(=O)O)c1
inactive: [1] > 100 µM | [2] > 100 µM | [3] > 100 µM | [5] > 100 µM | [6] > 100 µM | [8] > 100 µM | [10] > 100 µM | [11] > 100 µM | [12] > 100 µM | [13] > 100 µM | [18] > 100 µM | [14] > 100 µM | [15] > 100 µM | [16] > 100 µM | [17] > 100 µM

CC[C@@H]1C[C@H]2CC3c4[nH]c5ccc(O)cc5c4CCN(C2)C31
inactive: [1] > 100 µM | [2] > 100 µM | [3] > 100 µM | [4] > 100 µM | [5] > 100 µM | [6] 99.5 µM | [7] > 100 µM | [9] > 100 µM | [10] > 100 µM | [11] > 100 µM | [12] 72.3 µM | [13] > 100 µM | [18] > 100 µM | [15] > 100 µM | [16] > 100 µM | [17] > 100 µM
